This is an account of results in ChEMBL document CHEMBL1201862, “PubChem BioAssay data set” (2004).

Common to all, as to assay: NCI anticancer screen, dose series, 48 h
Test [1] deals with DMS-273.
Test [2] has as its system SF-539.
Test [3] has as its system SNB-19.
The subject of test [4] is SK-OV-3.
Test [5] deals with HCT-116.
Test [6] relates to HOP-62.
Test [7] relates to OVCAR-3.
Test [8] deals with NCI-H460.
For test [9], the system named is IGROV-1.
The subject of test [10] is SK-MEL-5.
Test [11] deals with ACHN.
For test [12], the system named is SK-MEL-2.
The test system of test [13] is HCT-15.
Test [14] has as its system Malme-3M.
The test system of test [15] is MCF7.
For test [16], the system named is PC-3.
The test system of test [17] is DU-145.
Test [18] concerns MDA-MB-231.
The test system of test [19] is HOP-92.
Test [20] has as its system NCI/ADR-RES.

SMILES strings stand for the structures.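 How tested: cells in 96-well plates exposed to compound for 48 hours at five concentrations. At the GI50, growth is halved.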 Active and inactive are the calls of the source. Rule as the data show it: active = GI50 up to about 1.1 µM and inactive = higher. Non-standard residues stand in square brackets, D forms with d. Residues, ends and D or L forms follow the SMILES beside them. *: point of attachment. NMeF = CN[CH](Cc1ccccc1)C(=O)O; NMeV = CN[CH](C(=O)O)C(C)C; Boc = CC(C)(C)OC(=O)*

With `O=C(CC(=O)N1N=C(c2ccccc2)C(/N=N/c2ccc(Cl)cc2)C1=O)Nc1ccccc1Cl` (configuration not stated), the GI50 in [1] was 32.2 µM (inactive); in [2] it was 24.4 µM (inactive); in [3], 21.2 µM (inactive); in [4] it was 18.8 µM (inactive); in test [5], 23.6 µM (inactive); in test [6], 20.1 µM (inactive). Besides, the GI50 was 24.3 µM (inactive) in test [7]; 42.1 µM (inactive) in test [8]; 36.4 µM (inactive) in test [9]; 18.1 µM (inactive) in test [10]; 15.6 µM (inactive) in test [11]; 32.4 µM (inactive) in test [12]. This compound had a GI50 in [13] of 51.2 µM.

On to `CC(C)C(NC(=O)OC(C)(C)C)C(=O)N(C)C(Cc1ccccc1)C(=O)N(C)C(C(=O)N(C)C(C(=O)O)C(C)C)C(C)C` (configuration not stated) (Boc-V[NMeF][NMeV][NMeV]-OH; configuration not given here), for which the GI50 in test [1], in test [2], in [3], in test [5], in [6] and in test [7] was > 100 µM (inactive) in each case. Moreover, the GI50 in [8] was > 100 µM (inactive); in [9], > 100 µM (inactive); in test [14], > 100 µM (inactive); in test [10], > 100 µM (inactive); in [11] it was > 100 µM (inactive); in test [13], over 100 µM.

`CCOC(=O)c1ccc(N2C(=O)Cc3ccccc3C2=O)cc1`: the GI50 in test [1], in test [2], in test [3], in [4], in test [5] and in test [7] was > 100 µM (inactive) throughout. Also, the GI50 in [9] is > 100 µM (inactive); in [14] it was > 100 µM (inactive); in test [10], > 100 µM (inactive); in [11], > 100 µM (inactive); in [12] it was > 100 µM (inactive); in [13], over 100 µM.

Turning to `O=C1C2=C(CCC2)Nc2cccc3ncn1c23`, the GI50 in test [1] is > 100 µM (inactive); in [2] it was > 100 µM (inactive); in test [3], > 100 µM (inactive); in test [4] it was 73.5 µM (inactive); in test [5], 34 µM (inactive); in [8], 33.7 µM (inactive). Moreover, the GI50 in test [9] is > 100 µM (inactive); in [14] it was > 100 µM (inactive); in [10], 69.5 µM (inactive); in [11], 33.2 µM (inactive); in test [12] it was 56.5 µM (inactive); in test [13], 48.1 µM.

With `[N-]=[N+]=Nc1cc(=O)oc2ccccc12`, the GI50 in test [1], in test [2], in [4], in test [5], in [6] and in test [8] was > 100 µM (inactive) each time. Besides, the GI50 is > 100 µM (inactive) in [9]; > 100 µM (inactive) in test [14]; > 100 µM (inactive) in [10]; > 100 µM (inactive) in test [11]; > 100 µM (inactive) in [12]; over 100 µM in test [13].

Consider `CN(C)c1ccc(/C=C/C=C\c2cc(/C=C/C=C/c3ccc(N(C)C)cc3)[s+]c3ccccc23)cc1.[O-][Cl+3]([O-])([O-])[O-]`, for which the GI50 in test [1] is 46.1 µM (inactive); in test [2], > 100 µM (inactive); in [3], > 100 µM (inactive); in test [4] it was 43.7 µM (inactive); in [5] it was 78.5 µM (inactive); in test [6] it was > 100 µM (inactive). In addition, the GI50 is 31.8 µM (inactive) in [7]; > 100 µM (inactive) in [8]; 24.4 µM (inactive) in [14]; 43.8 µM (inactive) in [10]; 45.2 µM (inactive) in test [12]; 80.7 µM in test [13].

In the case of `O=C(CCN1CCCCC1)Nc1ccc2sc3ccccc3c(=O)c2n1`, the GI50 was 15.3 µM (inactive) in test [2]; 15.4 µM (inactive) in test [3]; 23.2 µM (inactive) in test [4]; 15.9 µM (inactive) in test [15]; 6.46 µM (inactive) in test [5]; 11.9 µM (inactive) in test [16]. Besides, the GI50 was 13.1 µM (inactive) in [6]; 15.8 µM (inactive) in test [7]; 18.4 µM (inactive) in test [17]; 14.7 µM (inactive) in [18]; 13.7 µM (inactive) in [8]; 13.4 µM (inactive) in test [9]. Further, the GI50 in test [14] was 28 µM (inactive); in test [10], 21.6 µM (inactive); in test [11], 10.2 µM (inactive); in [12] it was > 10 µM (inactive); in [19], 0.411 µM (active); in test [13], 15.1 µM. Further, the GI50 in [20] is 7.67 µM (inactive).

Take `CO[C@]12CC(=O)C3(C(C[C@H]4CC5CC=C6C[C@@H](OC(C)=O)CC[C@]6(OC(C)=O)C5C[C@@]43C)C1)C1C[C@H]3[C@@H]4CC=C5C[C@@H](OC(C)=O)CC[C@]5(OC(C)=O)[C@H]4CC[C@]3(C)C12` (some centres not stated): the GI50 in [2] is 19.6 µM (inactive); in test [3], 13.9 µM (inactive); in test [4], 62.1 µM (inactive); in [15], 17.3 µM (inactive); in test [5], 6.55 µM (inactive); in [16], 10.7 µM (inactive). Also, the GI50 in test [6] was 18.8 µM (inactive); in [7], 19.7 µM (inactive); in [17] it was 16.5 µM (inactive); in [18], 14.8 µM (inactive); in [8] it was 16.3 µM (inactive); in test [9] it was 20.1 µM (inactive). Also, the GI50 was 18.5 µM (inactive) in [14]; 3.53 µM (inactive) in [10]; 22.9 µM (inactive) in test [11]; 18.1 µM (inactive) in [12]; 18.7 µM (inactive) in test [19]; 21.6 µM in [13]. Moreover, the GI50 in [20] was 14 µM (inactive).

For `Oc1ccc(Cl)cc1Cc1cc(Cl)cc(Cc2cc(Cl)ccc2O)c1O`, the GI50 is 1.64 µM (inactive) in test [2]; 2.56 µM (inactive) in [3]; 2.43 µM (inactive) in [4]; 2.21 µM (inactive) in test [15]; 2.28 µM (inactive) in test [5]; 2.45 µM (inactive) in test [16]. In addition, the GI50 in [6] was 2.5 µM (inactive); in test [7], 2.24 µM (inactive); in test [17], 2.96 µM (inactive); in [18] it was 2.53 µM (inactive); in test [8] it was 1.77 µM (inactive); in test [9], 3.2 µM (inactive). In addition, the GI50 is 1.95 µM (inactive) in test [14]; 1.11 µM (active) in [10]; 2.29 µM (inactive) in test [11]; 2.61 µM (inactive) in test [12]; 1.26 µM (inactive) in test [19]; 2.54 µM in test [13]. Also, in [20], the GI50 was 2.04 µM (inactive).

As to `COC1=CC(=O)c2c(c(COP(=O)(N(C)CCBr)N(C)CCBr)cn2C)C1=O`, the GI50 in test [2] is < 0.0114 µM (active); in [3], 0.141 µM (active); in test [4], 0.121 µM (active); in test [15] it was < 0.01 µM (active); in [5] it was < 0.01 µM (active); in test [16], 0.643 µM (active). Moreover, the GI50 in test [6] was < 0.0203 µM (active); in test [7], 0.226 µM (active); in test [17] it was 0.0134 µM (active); in test [18], 0.296 µM (active); in test [8], < 0.01 µM (active); in [9], 1.17 µM (inactive). Further, the GI50 in test [14] is 0.0811 µM (active); in test [10] it was 0.0836 µM (active); in [11] it was < 0.01 µM (active); in test [12], 0.15 µM (active); in test [19], 0.107 µM (active); in [13], under 0.0234 µM. In addition, the GI50 in test [20] is 0.134 µM (active).

Take `COC(=O)N1CC[C@@H]2CCC=C(c3cccc4c3OCO4)[C@@H]21`: the GI50 in [2] is > 100 µM (inactive); in test [3], 74.3 µM (inactive); in test [4] it was > 100 µM (inactive); in [15] it was > 100 µM (inactive); in test [5] it was > 100 µM (inactive); in [16], 54.2 µM (inactive). The GI50 was > 100 µM (inactive) in test [6]; > 100 µM (inactive) in [7]; > 100 µM (inactive) in test [17]; > 100 µM (inactive) in test [18]; 60 µM (inactive) in [8]; > 100 µM (inactive) in test [9]. Besides, the GI50 is > 100 µM (inactive) in test [14]; 61.4 µM (inactive) in test [10]; > 100 µM (inactive) in test [11]; > 100 µM (inactive) in [12]; 22 µM (inactive) in [19]; 93.3 µM in test [13]. Further, the GI50 in test [20] was 54.2 µM (inactive).

For the compound `COc1ccc(C2C(Cl)C(=O)N2NC(=O)c2ccccc2O)cc1OC` (configuration not stated), the GI50 was > 100 µM (inactive) in test [1]; > 100 µM (inactive) in test [2]; > 100 µM (inactive) in test [3]; 90.2 µM (inactive) in test [4]; > 100 µM (inactive) in test [5]; 75.9 µM (inactive) in [7]. Moreover, the GI50 in test [8] was 49.5 µM (inactive); in test [9], > 100 µM (inactive); in test [14] it was 65.3 µM (inactive); in test [10], 60 µM (inactive); in test [11] it was > 100 µM (inactive); in test [12], 92 µM (inactive). Besides, the GI50 in [13] is 68.9 µM.

Take `COc1ccc2nc3cc(Cl)ccc3c(Sc3ccc(NC(C)=O)cc3)c2c1`: the GI50 was 8.09 µM (inactive) in test [1]; 12.3 µM (inactive) in test [2]; > 22.4 µM (inactive) in [4]; 17.9 µM (inactive) in test [5]; > 41.7 µM (inactive) in test [6]; > 26.3 µM (inactive) in test [8]. The GI50 in [9] is > 32.4 µM (inactive); in [14] it was > 35.2 µM (inactive); in [10], > 29.3 µM (inactive); in [11] it was 4.86 µM (inactive); in test [12], 12.3 µM (inactive).
